This is an account of results in PubChem BioAssay (NCI).

Test systems include NCI-H226 lung; NCI-H23 lung; MOLT-4 leukemia; HOP-92 NSCLC; OVCAR-4 ovarian; LOX IMVI melanoma; MDA-MB-435; SK-MEL-2 melanoma; OVCAR-3 ovarian; MALME-3M melanoma.
Common to all, as to test: growth of human tumour cells (NCI), 48 h

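In this assay, cells in 96-well plates receive the compound at five concentrations for 48 hours. Endpoints are linearly interpolated between the surrounding concentrations. The concentration for 50% growth inhibition is given as GI50. TGI: concentration producing complete growth inhibition.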

On to `OCC1OC(n2cnc3c(NCc4ccccc4O)ncnc32)C(O)C1O` (centres undefined), for which the GI50 in the experiment on NCI-H226 lung was 8.65 µM; in the experiment on NCI-H23 lung it was 0.457 µM; in the experiment on MOLT-4 leukemia it was 0.596 µM; with HOP-92 NSCLC it was 0.709 µM; with OVCAR-4 ovarian it was 0.294 µM; with LOX IMVI melanoma it was 0.0695 µM. The GI50 in the experiment with MDA-MB-435 was 0.184 µM; with SK-MEL-2 melanoma, 0.328 µM; in the experiment with OVCAR-3 ovarian it was 0.388 µM; in the experiment on MALME-3M melanoma it was 2.99 µM. Also, the TGI is 23.2 µM in the experiment on NCI-H226 lung; 4.46 µM with NCI-H23 lung; above 38 µM with MOLT-4 leukemia; 7.51 µM in the experiment with HOP-92 NSCLC; 8.14 µM in the experiment with OVCAR-4 ovarian; 3.62 µM with LOX IMVI melanoma. Besides, the TGI was 3.2 µM in the experiment with MDA-MB-435, 1.83 µM in the experiment with SK-MEL-2 melanoma, 2.08 µM in the experiment on OVCAR-3 ovarian and above 75.5 µM in the experiment on MALME-3M melanoma.

For the compound `Cc1cc(OCc2nn(CN3CCN(C)CC3)c(=S)n2/N=C/c2ccc(F)cc2)ccc1Cl`, the GI50 is 17.7 µM with NCI-H226 lung; 16.9 µM in the experiment with NCI-H23 lung; 14.7 µM in the experiment on MOLT-4 leukemia; 17.8 µM in the experiment on HOP-92 NSCLC; 6.86 µM in the experiment on OVCAR-4 ovarian; 18.3 µM in the experiment on LOX IMVI melanoma. The GI50 with MDA-MB-435 was 18 µM; in the experiment on SK-MEL-2 melanoma, 18.5 µM; with OVCAR-3 ovarian, 17.4 µM; in the experiment with MALME-3M melanoma, 22.8 µM. Further, the TGI in the experiment with NCI-H226 lung worked out at 33.6 µM; in the experiment with NCI-H23 lung it was 31.1 µM; with MOLT-4 leukemia, 34.9 µM; with HOP-92 NSCLC, 37.6 µM; in the experiment with OVCAR-4 ovarian it was 22 µM; in the experiment on LOX IMVI melanoma, 32.7 µM. Further, the TGI turned out to be 36.2 µM with MDA-MB-435, 37.6 µM in the experiment with SK-MEL-2 melanoma, 34.3 µM in the experiment with OVCAR-3 ovarian and 43.4 µM with MALME-3M melanoma.

For `NC(=O)c1ncn2c(=O)n(CCCl)nnc12`, the TGI in the experiment with NCI-H226 lung amounted to 425 µM; with NCI-H23 lung, 330 µM; in the experiment on MOLT-4 leukemia, 567 µM; with HOP-92 NSCLC, 408 µM; in the experiment on OVCAR-4 ovarian, 437 µM; in the experiment on LOX IMVI melanoma, 279 µM. Also, the TGI in the experiment on MDA-MB-435 came to 388 µM; in the experiment with SK-MEL-2 melanoma it was 511 µM; in the experiment on OVCAR-3 ovarian, 475 µM; in the experiment on MALME-3M melanoma, 346 µM. Further, the GI50 is above 72.8 µM in the experiment on NCI-H23 lung, 37.2 µM with MOLT-4 leukemia and above 69.4 µM in the experiment with OVCAR-4 ovarian.

Turning to `Nc1no[n+]([O-])c1-c1nnc2c(n1)-c1ccccc1C2=O`, the GI50 is 16.1 µM with NCI-H226 lung; 1.88 µM in the experiment with NCI-H23 lung; 2.38 µM in the experiment with MOLT-4 leukemia; 2.21 µM in the experiment on HOP-92 NSCLC; 1.42 µM in the experiment with OVCAR-4 ovarian; 1.81 µM in the experiment with LOX IMVI melanoma. The GI50 in the experiment on MDA-MB-435 was 1.91 µM; with SK-MEL-2 melanoma, 9.13 µM; with OVCAR-3 ovarian, 0.569 µM; in the experiment with MALME-3M melanoma, 1.74 µM. Besides, the TGI was determined as 37.7 µM in the experiment with NCI-H226 lung; 4.35 µM with NCI-H23 lung; 6.21 µM with MOLT-4 leukemia; 6.63 µM in the experiment on HOP-92 NSCLC; 2.74 µM in the experiment with OVCAR-4 ovarian; 4.16 µM in the experiment with LOX IMVI melanoma. Moreover, the TGI in the experiment with MDA-MB-435 is 3.82 µM; in the experiment with SK-MEL-2 melanoma it was 24.4 µM; in the experiment on OVCAR-3 ovarian it was 3.83 µM; in the experiment on MALME-3M melanoma it was 3.45 µM.

As to `CCC(=C(c1ccc(OCCN2CCCC2)cc1)c1ccc(OCCN2CCCC2)cc1)c1ccc(Cl)cc1`, the GI50 with NCI-H226 lung is 0.735 µM; with NCI-H23 lung it was 0.667 µM; with MOLT-4 leukemia it was 0.592 µM; in the experiment with HOP-92 NSCLC it was 0.482 µM; with OVCAR-4 ovarian it was 0.667 µM; with LOX IMVI melanoma, 0.54 µM. The GI50 with MDA-MB-435 is 0.552 µM; in the experiment on SK-MEL-2 melanoma it was 0.688 µM; in the experiment on OVCAR-3 ovarian, 0.624 µM; in the experiment on MALME-3M melanoma it was 0.564 µM. Moreover, the TGI in the experiment on NCI-H226 lung was determined as 1.63 µM; in the experiment on NCI-H23 lung it was 1.38 µM; with MOLT-4 leukemia, 1.32 µM; with HOP-92 NSCLC it was 1.04 µM; in the experiment on OVCAR-4 ovarian, 1.43 µM; in the experiment on LOX IMVI melanoma, 1.02 µM. Further, the TGI in the experiment with MDA-MB-435 was 1.03 µM; with SK-MEL-2 melanoma, 1.35 µM; in the experiment on OVCAR-3 ovarian, 1.29 µM; in the experiment on MALME-3M melanoma it was 1.07 µM.

Consider `C1=C\CCCCN2CC[C@H]3[C@H](CCCC/C=C\CCCN4C[C@@H](CCCCC/1)C[C@@H]3C4)C2`, for which the GI50 in the experiment on NCI-H226 lung is 13.5 µM; in the experiment on NCI-H23 lung it was 14.3 µM; in the experiment with MOLT-4 leukemia, 3.67 µM; in the experiment on HOP-92 NSCLC, 4.04 µM; with OVCAR-4 ovarian it was 8.84 µM; in the experiment with LOX IMVI melanoma, 4.3 µM. Besides, the GI50 in the experiment with MDA-MB-435 was 1.73 µM; with SK-MEL-2 melanoma, 10.4 µM; in the experiment with OVCAR-3 ovarian it was 10.8 µM; in the experiment on MALME-3M melanoma, 2.13 µM. Besides, the TGI with NCI-H226 lung was 27.7 µM; in the experiment on NCI-H23 lung it was 30.2 µM; in the experiment on MOLT-4 leukemia it was 17.4 µM; in the experiment on HOP-92 NSCLC, 20.1 µM; in the experiment on OVCAR-4 ovarian, 27.5 µM; with LOX IMVI melanoma, 14.8 µM. Also, the TGI in the experiment with MDA-MB-435 came out at 3.26 µM; in the experiment on SK-MEL-2 melanoma, 26.3 µM; in the experiment on OVCAR-3 ovarian, 23.3 µM; in the experiment with MALME-3M melanoma, 5.43 µM.

For the compound `Oc1ccc(/C=N/NC(=S)Nc2cccnc2)nc1`, the TGI in the experiment with NCI-H226 lung is above 100 µM; with NCI-H23 lung, 61.9 µM; in the experiment on MOLT-4 leukemia, 15 µM; with HOP-92 NSCLC, 59.6 µM; in the experiment on OVCAR-4 ovarian, above 100 µM; in the experiment with LOX IMVI melanoma it was above 100 µM. Further, the TGI was above 100 µM in the experiment with MDA-MB-435, above 100 µM in the experiment with SK-MEL-2 melanoma, above 100 µM in the experiment with OVCAR-3 ovarian and 9.12 µM in the experiment with MALME-3M melanoma.

As for `CCC(C)C(=O)OC1CCC=C2C=CC(C)C(CCC3CC(O)CC(=O)O3)C21` (centres undefined), the TGI in the experiment with NCI-H226 lung, in the experiment on NCI-H23 lung, in the experiment on MOLT-4 leukemia, in the experiment with HOP-92 NSCLC, in the experiment on OVCAR-4 ovarian and with LOX IMVI melanoma was above 100 µM throughout. The TGI in the experiment with MDA-MB-435, in the experiment with SK-MEL-2 melanoma, in the experiment on OVCAR-3 ovarian and in the experiment on MALME-3M melanoma was above 100 µM each time. In the experiment on HOP-92 NSCLC, the GI50 was 0.79 µM.
